Assay results from patent US20090186915A1, “Compositions and methods for treatment of glioblastoma, gliosarcoma, NSCLC, and head and neck cancer” (Unibioscreen S. A., priority 2006, published 2009).

What was measured:
[1] = test system: nine human cancer cell lines; assay: MTT colorimetric assay, mean of nine cell lines; assay type: cell-based; conditions: mean over nine human cancer cell lines, read-out: mean antiproliferative activity IC50
Description: The overall growth of human cancer cell lines was determined by means of the calorimetric MTT (3-[4,5-dimethylthiazol-2-yl]-diphenyl tetrazolium bromide; Sigma) assay, as detailed previously.
UNBS3157 and UNBS5162 display weak antiproliferative activity in vitro.

[2] = test system: PC-3; assay: Lysosomal membrane permeabilization (LMP), PC-3; assay type: cell-based, human; conditions: 72 hours, 1 μM or 10 μM
Source text: (§1) It is well known that lysosomes control cell death at several levels. In response to endogenous or exogenous stress (including chemotherapy), lysosomal membrane permeabilization (LMP) can occur, leading to the release of catabolic hydrolases that can mediate caspase-dependent apoptosis, caspase-independent apoptosis-like cell death or even necrosis following high levels of LMP.

[3] = test system: DU-145; assay: Lysosomal membrane permeabilization (LMP), DU-145; assay type: cell-based, human; conditions: 72 hours, 10 μM
Source text: as §1

[4] = test system: Mk-CFC; assay: HALO hematotoxicity assay, mouse Mk-CFC; assay type: cell-based; conditions: 5 days culture, iATP
Description: (§2) Investigation of the hematotoxic potential of UNBS5162 was undertaken by HemoGenix (Colorado Springs, Colo.). The effects of UNBS5162 on stem and progenitor cell populations from murine and human bone marrow were assessed using HALO (Hematopoietic/Hematotoxicity Assay through Luminescence Output) technology. Stem and hematopoietic progenitor cell populations were isolated from mouse and human bone marrow samples, plated at a concentration of 1.0×10^4 cells/well and cultured for 5 and 7 days, respectively, in the presence of growth factors and increasing concentrations of UNBS5162 ranging from 0.5 nM to 50 μM. The proliferative or growth potential of cell populations was determined from intracellular ATP (iATP) concentrations and a luciferin/luciferase bioluminescence signal detection system. All samples were assayed in eight replicates. The results are presented as estimated inhibitory concentration (IC) values.

[5] = test system: PC-3 Human Prostate Cancer Cells; assay: Affymetrix whole genome microarray, gene targets; conditions: mRNA
Description: We performed a first experiment of evaluation of gene targets by means of Affymetrix whole genome microarray using human PC-3 cancer cells grown in vitro and treated with the compound of the invention (N-{2-[2-(dimethylamino)ethyl]-1,3-dioxo-2,3-dihydro-1H-benzo[de]isoquinolin-5-yl}urea) either one time at 1 μM or 10 μM, or 5 times a week (one time a day during five consecutive days) at 1 μM (Full genome analyses were performed at the VIB MicroArray Facility (UZ Gasthuisberg, Catholic University of Leuven, Belgium) using Affymetrix Human Genome U133 set Plus 2.0 (High Wycombe, United Kingdom).
Full genome-wide analyses were performed at the VIB MicroArray Facility (UZ Gasthuisberg, Catholic University of Leuven, Leuven, Belgium) using the Affymetrix Human Genome U133 set Plus 2.0 (High Wycombe, UK).
In addition to R, an open-source software environment for statistical computing, a set of functions called BioConductor was used for the analysis and comprehension of the genomic data. The quality controls in the Affymetrix microarray experiments were performed with the Simpleaffy package and agreed with Affymetrix guidelines. The background correction, expression quantification and normalization were performed using Robust Multichip Analysis. To select differentially expressed genes between two experimental conditions, probes for which no overlap occurred between intervals in the expression values obtained for each condition were first identified. The fold change between two experimental conditions was computed for each of these probes (without any value overlap) as the ratio between the two nearest unlog expression values observed for the two different conditions (i.e., the ratio closest to 1 between any two values from the two different conditions). Probes for which these ratios were above 2.0 or below 0.50 were then selected. The annotations of the genes finally selected in this way were retrieved from the Affymetrix Web site through the BioConductor package ghgu133plus2.h. […] This software package was then used to rank functional clusters by means of the statistical overrepresentation of individual genes in specific categories relative to all the genes in the same category on the microarray.

[6] = test system: GM-CFC; assay: HALO hematotoxicity assay, mouse GM-CFC; assay type: cell-based; conditions: 5 days culture, iATP
Description: as §2

[7] = test system: CXCL-1 and CXCL-8; assay: ELISA of CXCL1 and CXCL8, OE21 cells; assay type: cell-based, human; conditions: 5×1 μM
Description: ELISA determination of CXCL1 and CXCL8 (IL-8) protein levels in untreated and 5×1 μM UNBS5162-treated OE21 cells. “5×1 μM” means that tumor cells were treated in vitro for one day with 1 μM UNBS5162 and then the culture medium was replaced by fresh medium containing 1 μM UNBS5162; this procedure of renewal of cell medium containing 1 μM UNBS5162 was repeated for five consecutive days, with determination of chemokine concentration being performed 24 h (+24 h) or 72 h (+72 h) after the 5th (last) treatment of tumor cells with UNBS5162. The concentrations of the two specific chemokines (expressed as pg/mL) were normalized by the cell number determined in each sample. Each sample was assessed in triplicate. The data are presented as means (grey columns)±SEM (thin bars) in FIG. 9.

[8] = Body weight of MXT-HI tumor-bearing mice; assay type: in vivo, female B6D2F1 mice; conditions: for Mean body weight: UNBS5162 i.v. (5i × 3w) 10 mg/kg, alone or with 10 gray
[9] = test system: Rb, pRb; assay: Western blot of Rb and p-Rb, DU-145; assay type: cell-based, human; conditions: 10 μM
[10] = test system: E2F1; assay: E2F1 expression (Western blot), DU-145; assay type: cell-based, human; conditions: 10 μM
[11] = 1 μM once a day for five consecutive days

CN(C)CCN1C(=O)c2cccc3cc(NC(N)=O)cc(c23)C1=O [UNBS5162, N-{2-[2-(dimethylamino)ethyl]-1,3-dioxo-2,3-dihydro-1H-benzo[de]isoquinolin-5-yl}urea]
IC50 [1]: 17.9 µM
lysosomal membrane permeabilization (LMP) [2]: no LMP
lysosomal membrane permeabilization (LMP) [3]: a marked drug-induced LMP process appeared
IC50 ([4]; 120 h): 5.94 µM
IC90 ([4]; 120 h): 9.61 µM
IC75 [4]: 7.53 µM
ALDH1A3 Expression Level: 5 × 1 μM [5, 11]: 3.7
ASNS Expression Level: 5 × 1 μM [5, 11]: 0.9
BCAT1 Expression Level: 5 × 1 μM [5, 11]: 0.8
CBS Expression Level: 5 × 1 μM [5, 11]: 1.0
CTH Expression Level: 5 × 1 μM [5, 11]: 0.9
H2BFS Expression Level: 5 × 1 μM [5, 11]: 0.5
HIST1H2AC Expression Level: 5 × 1 μM [5, 11]: 0.2
HIST1H2BC Expression Level: 5 × 1 μM [5, 11]: 0.7
HIST1H2BD Expression Level: 5 × 1 μM [5, 11]: 0.3
HIST1H2BG Expression Level: 5 × 1 μM [5, 11]: 0.5
HIST1H2BK Expression Level: 5 × 1 μM [5, 11]: 0.3
HIST1H3D Expression Level: 5 × 1 μM [5, 11]: 0.6
HIST1H3H Expression Level: 5 × 1 μM [5, 11]: 0.6
HIST2H2AA Expression Level: 5 × 1 μM [5, 11]: 0.5
HIST2H2BE Expression Level: 5 × 1 μM [5, 11]: 0.3
PHGDH Expression Level: 5 × 1 μM [5, 11]: 1.0
SARS Expression Level: 5 × 1 μM [5, 11]: 0.9
SAT Expression Level: 5 × 1 μM [5, 11]: 0.8
ALDH1A3 CT versus 1 μM ([5]; one time at 1 μM): 0.7
ASNS CT versus 1 μM ([5]; one time at 1 μM): 1.3
CBS CT versus 1 μM ([5]; one time at 1 μM): 1.0
CTH CT versus 1 μM ([5]; one time at 1 μM): 1.1
H2AFY CT versus 1 μM ([5]; one time at 1 μM): 1.7
HIST1H2AC CT versus 1 μM ([5]; one time at 1 μM): 1.0
HIST1H3D CT versus 1 μM ([5]; one time at 1 μM): 0.9
PHGDH CT versus 1 μM ([5]; one time at 1 μM): 1.4
SARS CT versus 1 μM ([5]; one time at 1 μM): 1.0
SAT CT versus 1 μM ([5]; one time at 1 μM): 1.1
ALDH1A3 Expression Level: 10 μM ([5]; one time at 10 μM): 2.3
ASNS Expression Level: 10 μM ([5]; one time at 10 μM): 3.6
BCAT1 Expression Level: 10 μM ([5]; one time at 10 μM): 2.1
CBS Expression Level: 10 μM ([5]; one time at 10 μM): 2.2
CTH Expression Level: 10 μM ([5]; one time at 10 μM): 2.0
H2AFY Expression Level: 10 μM ([5]; one time at 10 μM): 2.6
H2BFS Expression Level: 10 μM ([5]; one time at 10 μM): 0.5
HIST1H2AC Expression Level: 10 μM ([5]; one time at 10 μM): 0.4
HIST1H2BC Expression Level: 10 μM ([5]; one time at 10 μM): 0.4
HIST1H2BD Expression Level: 10 μM ([5]; one time at 10 μM): 0.3
HIST1H2BG Expression Level: 10 μM ([5]; one time at 10 μM): 0.4
HIST1H2BK Expression Level: 10 μM ([5]; one time at 10 μM): 0.5
HIST1H3D Expression Level: 10 μM ([5]; one time at 10 μM): 0.4
HIST1H3H Expression Level: 10 μM ([5]; one time at 10 μM): 0.3
HIST2H2AA Expression Level: 10 μM ([5]; one time at 10 μM): 0.4
HIST2H2BE Expression Level: 10 μM ([5]; one time at 10 μM): 0.5
PHGDH Expression Level: 10 μM ([5]; one time at 10 μM): 2.4
SARS Expression Level: 10 μM ([5]; one time at 10 μM): 2.6
SAT Expression Level: 10 μM ([5]; one time at 10 μM): 0.5
IC50 ([6]; 120 h): 7.04 µM
IC90 ([6]; 120 h): 12 µM
IC75 [6]: 9.09 µM
CXCL-1 and CXCL-8 protein levels (ELISA) [7]: a marked decrease in CXCL-1 and CXCL-8
Mean body weight ([8]; Day 14): 22.13 g
Mean body weight ([8]; Day 16): 23.39 g
Mean body weight ([8]; Day 19): 25.72 g
Mean body weight ([8]; Day 21): 24.35 g
Mean body weight ([8]; Day 23): 25.46 g
Mean body weight ([8]; Day 26): 28.52 g
changes in body weights compared to control ([8]; UNBS5162 10 mg/kg i.v. 5i×3w, alone or with 1×10 gray): No significant changes in body weights
Rb protein expression [9]: a decrease but not the complete disappearance of Rb protein and E2F1 expression
E2F1 expression [10]: a decrease but not the complete disappearance of Rb protein and E2F1 expression
